Results from paper PMC7019903 (Viruses, 2020).
Like-named read-outs stand apart in the source and are kept apart here.

Experiments:
[1] = system: HTNV; settings: read-out: EC50 against HTNV; cited from earlier work
[2] = system: Hantaan (HTNV) (strain 76–118); test: microbe, parasite or virus in culture; format: cell-based, Hantaan virus; settings: for EC50: read-out: HTNV EC50
[3] = in vitro; settings: African green monkey
[4] = in vitro; settings: Mesocricetus auratus (hamster)
[5] = in vitro; settings: Cercopithecus aethiops (monkey)
[6] = in vitro; settings: Bos taurus (cattle)
[7] = in vitro; settings: human
[8] = system: HTNV; format: cell-based, Hantaan virus
[9] = Orthohantavirus hantanense, Vero C1008, 168 h

Structure (SMILES)	EC50 [2, 9] [µM]	CC50 [3] [µM]	CC50 [4] [µM]	CC50 [5] [µM]	CC50 [6] [µM]	CC50 [7] [µM]	also measured
NC(=O)c1nc(F)c[nH]c1=O [Favipiravir]							EC50 [1]: 151 µM
O=C(Nc1ccc(-n2nc3cc(Cl)c(Cl)cc3n2)cc1)c1ccc([N+](=O)[O-])cc1 [2h]	> 30	> 30	> 100				
O=C(Nc1ccc(-n2nnc3cc(Cl)c(Cl)cc32)cc1)c1ccc(Cl)cc1 [1g]	≥ 30	> 30	> 100	≥ 100			
CCNC(=O)Nc1ccc(-n2nc3ccccc3n2)cc1 [3k]	> 30	> 30	> 100	> 100	> 100		
Nc1ccc(-n2nc3cc(Cl)c(Cl)cc3n2)cc1 [2a]	> 30	> 30	> 100	≥ 100			
COc1ccc(C(=O)Nc2ccc(-n3nnc4cc(Cl)c(Cl)cc43)cc2)cc1 [1i]	> 30	> 30	> 100				
COc1cc(C(=O)Nc2ccc(-n3nnc4cc(Cl)c(Cl)cc43)cc2)cc(OC)c1OC [1j]	> 30	> 30	> 100				
CCC(=O)Nc1ccc(-n2nnc3cc(Cl)c(Cl)cc32)cc1 [1c]	> 20	20	54		≥ 100		
CCNC(=O)Nc1ccc(-n2nc3cc(Cl)c(Cl)cc3n2)cc1 [2k]	26	> 30	> 100				
COc1cc(C(=O)Nc2ccc(-n3nc4cc(C)c(C)cc4n3)cc2)cc(OC)c1OC [4j, N-(4-(5,6-dimethyl-2H-benzo[d][1,2,3]triazol-2-yl)phenyl)-3,4,5-trimethoxybenzamide]	> 30	> 30	> 100	> 100	> 100		melting point: 272 to 273 °C
CCCCNC(=O)Nc1ccc(-n2nc3ccccc3n2)cc1 [3m]	> 30	> 30	> 100	> 100	> 100	> 100	
CCCCNC(=O)Nc1ccc(-n2nc3cc(C)c(C)cc3n2)cc1 [4m]	> 30	> 30	> 100	> 100	> 100	> 100	
CC(=O)Nc1ccc(-n2nnc3cc(Cl)c(Cl)cc32)cc1 [1b]	> 20	20	53				
O=C(Nc1ccc(-n2nnc3cc(Cl)c(Cl)cc32)cc1)c1ccc([N+](=O)[O-])cc1 [1h]	21	> 30	96				
Cc1ccc(C(=O)Nc2ccc(-n3nc4cc(C)c(C)cc4n3)cc2)cc1 [4f, N-(4-(5,6-dimethyl-2H-benzo[d][1,2,3]triazol-2-yl)phenyl)-4-methylbenzamide]	> 30	> 30	> 100	> 100	> 100	> 100	melting point: 295 to 296 °C
CCC(=O)Nc1ccc(-n2nc3cc(Cl)c(Cl)cc3n2)cc1 [2c]	> 30	> 30	> 100				
CCNC(=O)Nc1ccc(-n2nc3cc(C)c(C)cc3n2)cc1 [4k]	> 30	> 30	> 100	> 100	> 100	> 100	
COc1cc(C(=O)Nc2ccc(-n3nc4cc(Cl)c(Cl)cc4n3)cc2)cc(OC)c1OC [2j]	≤ 5	> 30	35				Selectivity Index [2]: > 7.5; EC50 [2]: 4 µM; effect on viral titer (result in words) [8]: significant reduction of viral titer; reduction of viral titer [8]: 2.14 log10
CCCNC(=O)Nc1ccc(-n2nc3cc(C)c(C)cc3n2)cc1 [4l]	> 30	> 30	> 100	> 100	> 100	> 100	

Structure (SMILES)	EC50 [2, 9] [µM]	CC50 [3] [µM]	CC50 [4] [µM]	CC50 [5] [µM]	CC50 [6] [µM]	CC50 [7] [µM]	also measured
C#Cc1ncn([C@@H]2O[C@H](CO)[C@@H](O)[C@H]2O)n1 [ETAR, 1-beta-d-ribofuranosyl-3-ethynyl-[1,2,4] triazole]							EC50 [1]: 10 µM
Cc1cc2nn(-c3ccc(NC(=O)NC4CCCCC4)cc3)nc2cc1C [4n]	> 30	> 30	> 100	95	> 100	> 100	
COc1ccc(C(=O)Nc2ccc(-n3nc4cc(Cl)c(Cl)cc4n3)cc2)cc1 [2i]	> 30	> 30	> 100			≥ 100	
CCCCNC(=O)Nc1ccc(-n2nc3cc(Cl)c(Cl)cc3n2)cc1 [2m]	> 30	> 30	> 100	95			
O=C(Nc1ccc(-n2nc3ccccc3n2)cc1)NC1CCCCC1 [3n]	> 30	> 30	> 100	95	> 100	> 100	
CCCC(=O)N(C(=O)CCC)c1ccc(-n2nc3cc(Cl)c(Cl)cc3n2)cc1 [2e]	> 30	> 30	62	≥ 100			
Cc1ccc(C(=O)Nc2ccc(-n3nnc4cc(Cl)c(Cl)cc43)cc2)cc1 [1f]	> 30	> 30	≥ 100				
O=C(Nc1ccc(-n2nc3cc(Cl)c(Cl)cc3n2)cc1)NC1CCCCC1 [2n]	≤ 5	> 30	71				Selectivity Index [2]: > 7.5; EC50 [2]: 4 µM; effect on viral titer (result in words) [8]: significant reduction of viral titer
CC(=O)Nc1ccc(-n2nc3cc(Cl)c(Cl)cc3n2)cc1 [2b]	> 30	> 30	> 100				
CCCNC(=O)Nc1ccc(-n2nc3cc(Cl)c(Cl)cc3n2)cc1 [2l]	≤ 5	30	40				Selectivity Index [2]: 6; EC50 [2]: 5 µM; effect on viral titer (result in words) [8]: significant reduction of viral titer
CCCC(=O)N(C(=O)CCC)c1ccc(-n2nnc3cc(Cl)c(Cl)cc32)cc1 [1e]	> 25	25	16				
Nc1ccc(-n2nnc3cc(Cl)c(Cl)cc32)cc1 [1a]	> 30	> 30	> 100			≥ 100	
Cc1ccc(C(=O)Nc2ccc(-n3nc4cc(Cl)c(Cl)cc4n3)cc2)cc1 [2f]	22	> 30	> 100				
CCCNC(=O)Nc1ccc(-n2nc3ccccc3n2)cc1 [3l]	> 30	> 30	> 100	> 100	> 100	> 100	
NC(=O)c1ncn([C@@H]2O[C@H](CO)[C@@H](O)[C@H]2O)n1 [RBV, Ribavirin, reference compound]	37	> 100					Selectivity Index [2]: > 2; effect on viral titer (result in words) ([8]; 50 µM): significant decline in viral titer
CCC(=O)N(C(=O)CC)c1ccc(-n2nc3cc(Cl)c(Cl)cc3n2)cc1 [2d]	> 30	> 30	26	≥ 100	73		
COc1cc(C(=O)Nc2ccc(-n3nc4ccccc4n3)cc2)cc(OC)c1OC [3j, N-(4-(2H-benzo[d][1,2,3]triazol-2-yl)phenyl)-3,4,5-trimethoxybenzamide]	> 30	> 30	> 100	> 100	> 100	> 100	melting point: 227 to 229 °C
Cc1ccc(C(=O)Nc2ccc(-n3nc4ccccc4n3)cc2)cc1 [3f, N-(4-(2H-benzo[d][1,2,3]triazol-2-yl)phenyl)-4-methylbenzamide]	> 30	> 30	> 100	> 100	> 100	> 100	melting point: 266 to 268 °C
O=C(Nc1ccc(-n2nc3cc(Cl)c(Cl)cc3n2)cc1)c1ccc(Cl)cc1 [2g]	> 30	> 30	> 100	95			
